Laboratory results: PMC10408569, “Recruitment of hexahydroquinoline as anticancer scaffold targeting inhibition of wild and mutants EGFR (EGFR^WT, EGFR^T790M, and EGFR^L858R)” (Journal of Enzyme Inhibition and Medicinal Chemistry, 2023)

Legend:
HCC-2998 = assay: NCI-60 anticancer screening (SRB); format: cell-based; conditions: Homo sapiens; HCC-2998, colon cancer; one dose 10 μM; read-out: Growth Inhibition Percentage (GI %)
SF-539 = assay: NCI-60 anticancer screening (SRB); format: cell-based; conditions: Homo sapiens; SF-539, CNS cancer; one dose 10 μM; read-out: Growth Inhibition Percentage (GI %)
SW-620 = assay: NCI-60 anticancer screening (SRB); format: cell-based; conditions: Homo sapiens; SW-620, colon cancer; one dose 10 μM; read-out: Growth Inhibition Percentage (GI %)
MDA-MB-231 = assay: NCI-60 anticancer screening (SRB); format: cell-based; conditions: Homo sapiens; MDA-MB-231, breast cancer; one dose 10 μM; read-out: Growth Inhibition Percentage (GI %)
HCT-116 = assay: NCI-60 anticancer screening (SRB); format: cell-based; conditions: Homo sapiens; HCT-116, colon cancer; one dose 10 μM; read-out: Growth Inhibition Percentage (GI %)
NCI-H322M = assay: NCI-60 anticancer screening (SRB); format: cell-based; conditions: Homo sapiens, NSC lung cancer, one dose 10 μM, read-out: Growth Inhibition Percentage (GI %)
OVCAR-5 = assay: NCI-60 anticancer screening (SRB); format: cell-based; conditions: Homo sapiens; OVCAR-5, ovarian cancer; one dose 10 μM; read-out: Growth Inhibition Percentage (GI %)
RPMI-8226 = assay: NCI-60 anticancer screening (SRB); format: cell-based; conditions: Homo sapiens; RPMI-8226, leukemia; one dose 10 μM; read-out: Growth Inhibition Percentage (GI %)
RXF 393 = assay: NCI-60 anticancer screening (SRB); format: cell-based; conditions: Homo sapiens; RXF 393, renal cancer; one dose 10 μM; read-out: Growth Inhibition Percentage (GI %)
PC-3 = assay: NCI-60 anticancer screening (SRB); format: cell-based; conditions: Homo sapiens; PC-3, prostate cancer; one dose 10 μM; read-out: Growth Inhibition Percentage (GI %)
SR = assay: NCI-60 anticancer screening (SRB); format: cell-based; conditions: Homo sapiens, leukemia, one dose 10 μM, read-out: Growth Inhibition Percentage (GI %)
KM 12 = assay: NCI-60 anticancer screening (SRB); format: cell-based; conditions: Homo sapiens, KM12; KM 12, colon cancer; one dose 10 μM; read-out: Growth Inhibition Percentage (GI %)
NCI-H460 = assay: NCI-60 anticancer screening (SRB); format: cell-based; conditions: Homo sapiens; NCI-H460, NSC lung cancer; one dose 10 μM; read-out: Growth Inhibition Percentage (GI %)
SK-OV-3 = assay: NCI-60 anticancer screening (SRB); format: cell-based; conditions: Homo sapiens; SK-OV-3, ovarian cancer; one dose 10 μM; read-out: Growth Inhibition Percentage (GI %)
UACC-257 = assay: NCI-60 anticancer screening (SRB); format: cell-based; conditions: Homo sapiens; UACC-257, melanoma; one dose 10 μM; read-out: Growth Inhibition Percentage (GI %)
A549/ATCC = assay: NCI-60 anticancer screening (SRB); format: cell-based; conditions: Homo sapiens; A549/ATCC, NSC lung cancer; one dose 10 μM; read-out: Growth Inhibition Percentage (GI %)
MDA-MB-435 = assay: NCI-60 anticancer screening (SRB); format: cell-based; conditions: Homo sapiens; MDA-MB-435, melanoma; one dose 10 μM; read-out: Growth Inhibition Percentage (GI %)
ACHN = assay: NCI-60 anticancer screening (SRB); format: cell-based; conditions: Homo sapiens, renal cancer, one dose 10 μM, read-out: Growth Inhibition Percentage (GI %)
HOP-62 = assay: NCI-60 anticancer screening (SRB); format: cell-based; conditions: Homo sapiens; HOP-62, NSC lung cancer; one dose 10 μM; read-out: Growth Inhibition Percentage (GI %)
SK-MEL-5 = assay: NCI-60 anticancer screening (SRB); format: cell-based; conditions: Homo sapiens; SK-MEL-5, melanoma; one dose 10 μM; read-out: Growth Inhibition Percentage (GI %)
HT29 = assay: NCI-60 anticancer screening (SRB); format: cell-based; conditions: Homo sapiens, HT-29; HT29, colon cancer; one dose 10 μM; read-out: Growth Inhibition Percentage (GI %)
SNB-19 = assay: NCI-60 anticancer screening (SRB); format: cell-based; conditions: Homo sapiens; SNB-19, CNS cancer; one dose 10 μM; read-out: Growth Inhibition Percentage (GI %)
T-47D = assay: NCI-60 anticancer screening (SRB); format: cell-based; conditions: Homo sapiens, T47D, breast cancer, one dose 10 μM, read-out: Growth Inhibition Percentage (GI %)
IGROV1 = assay: NCI-60 anticancer screening (SRB); format: cell-based; conditions: Homo sapiens, IGROV-1; IGROV1, ovarian cancer; one dose 10 μM; read-out: Growth Inhibition Percentage (GI %)
HCT-15 = assay: NCI-60 anticancer screening (SRB); format: cell-based; conditions: Homo sapiens; HCT-15, colon cancer; one dose 10 μM; read-out: Growth Inhibition Percentage (GI %)
SN 12C = assay: NCI-60 anticancer screening (SRB); format: cell-based; conditions: Homo sapiens, SN12C; SN 12C, renal cancer; one dose 10 μM; read-out: Growth Inhibition Percentage (GI %)
NCI 60 cancer cell lines = assay: NCI-60 anticancer screening (SRB), whole panel; format: cell-based, human; conditions: mean across the NCI-60 panel; one dose 10 μM

SMILES	inhibition at 10 µM (HCC-2998) [%]	inhibition at 10 µM (SF-539) [%]	inhibition at 10 µM (SW-620) [%]	inhibition at 10 µM (MDA-MB-231) [%]	inhibition at 10 µM (HCT-116) [%]	inhibition at 10 µM (NCI-H322M) [%]	inhibition at 10 µM (OVCAR-5) [%]	inhibition at 10 µM (RPMI-8226) [%]	inhibition at 10 µM (RXF 393) [%]	inhibition at 10 µM (PC-3) [%]	inhibition at 10 µM (SR) [%]	inhibition at 10 µM (KM 12) [%]	inhibition at 10 µM (NCI-H460) [%]	inhibition at 10 µM (UACC-257) [%]	inhibition at 10 µM (A549/ATCC) [%]	inhibition at 10 µM (MDA-MB-435) [%]	inhibition at 10 µM (ACHN) [%]	inhibition at 10 µM (HOP-62) [%]	inhibition at 10 µM (SK-MEL-5) [%]	inhibition at 10 µM (HT29) [%]	other results
CCOC(=O)C1=C(N)N(c2ccc(C)cc2)C2=C(C(=O)CC(C)(C)C2)C1c1ccccc1Cl (racemic) [6b, (±)-Ethyl 2-amino-4–(2-chlorophenyl)-7,7-dimethyl-1–(4-methylphenyl)-5-oxo-1,4,5,6,7,8-hexahydroquinoline-3-carboxylate]	< 10	< 10	19	< 10	17	< 10	< 10	22	< 10	43	< 10	< 10	20	< 10	13	< 10	< 10	< 10	17	30	inhibition at 10 µM (SK-OV-3): < 10%; inhibition at 10 µM (SNB-19): 12%; inhibition at 10 µM (T-47D): 21%; inhibition at 10 µM (IGROV1): < 10%; inhibition at 10 µM (HCT-15): 30%; inhibition at 10 µM (SN 12C): < 10%
CCOC(=O)C1=C(N)N(c2ccccc2)C2=C(C(=O)CC(C)(C)C2)C1c1ccccc1OC (racemic) [6g, (±)-Ethyl 2-amino-4–(2-methoxyphenyl)-7,7-dimethyl-5-oxo-1-phenyl-1,4,5,6,7,8-hexahydroquinoline-3-carboxylate]	< 10	< 10	< 10	< 10	< 10	< 10	< 10	< 10	< 10	11	< 10	< 10	< 10	< 10	< 10	< 10	< 10	< 10	< 10	< 10	inhibition at 10 µM (SK-OV-3): < 10%; inhibition at 10 µM (SNB-19): < 10%; inhibition at 10 µM (T-47D): < 10%; inhibition at 10 µM (IGROV1): < 10%; inhibition at 10 µM (HCT-15): < 10%; inhibition at 10 µM (SN 12C): < 10%
CCOC(=O)C1=C(N)N(c2ccc(C)cc2)C2=C(C(=O)CC(C)(C)C2)C1c1ccccc1OC (racemic) [6h, (±)-Ethyl 2-amino-4–(2-methoxyphenyl)-7,7-dimethyl-1–(4-methylphenyl)-5-oxo-1,4,5,6,7,8-hexahydroquinoline-3-carboxylate]	< 10	< 10	< 10	< 10	< 10	< 10	< 10	< 10	< 10	< 10	< 10	< 10	< 10	< 10	< 10	< 10	< 10	< 10	< 10	< 10	inhibition at 10 µM (SK-OV-3): < 10%; inhibition at 10 µM (SNB-19): < 10%; inhibition at 10 µM (T-47D): < 10%; inhibition at 10 µM (IGROV1): < 10%; inhibition at 10 µM (HCT-15): < 10%; inhibition at 10 µM (SN 12C): < 10%
CCOC(=O)C1=C(N)N(c2ccccc2)C2=C(C(=O)CC(C)(C)C2)C1c1ccc(F)cc1 (racemic) [8a, (±)-Ethyl 2-amino-4–(4-fluorophenyl)-7,7-dimethyl-5-oxo-1-phenyl-1,4,5,6,7,8-hexahydroquinoline-3-carboxylate]	< 10	< 10	< 10	< 10	< 10	< 10	< 10	< 10	< 10	< 10	< 10	< 10	< 10	< 10	< 10	< 10	< 10	< 10	< 10	< 10	inhibition at 10 µM (SK-OV-3): < 10%; inhibition at 10 µM (SNB-19): < 10%; inhibition at 10 µM (T-47D): < 10%; inhibition at 10 µM (IGROV1): < 10%; inhibition at 10 µM (HCT-15): < 10%; inhibition at 10 µM (SN 12C): < 10%
CCOC(=O)C1=C(N)N(c2ccc(C)cc2)C2=C(C(=O)CC(C)(C)C2)C1c1ccc(Cl)cc1 (racemic) [8d, (±)-Ethyl 2-amino-4–(4-chlorophenyl)-7,7-dimethyl-1–(4-methylphenyl)-5-oxo-1,4,5,6,7,8-hexahydroquinoline-3-carboxylate]	< 10	< 10	20	< 10	14	< 10	< 10	< 10	< 10	43	< 10	< 10	21	< 10	14	< 10	< 10	< 10	16	33	inhibition at 10 µM (SK-OV-3): < 10%; inhibition at 10 µM (SNB-19): < 10%; inhibition at 10 µM (T-47D): 16%; inhibition at 10 µM (IGROV1): < 10%; inhibition at 10 µM (HCT-15): 35%; inhibition at 10 µM (SN 12C): < 10%
CCOC(=O)C1=C(N)N(c2ccccc2)C2=C(C(=O)CC(C)(C)C2)C1c1ccc([N+](=O)[O-])cc1 (racemic) [8i, (±)-Ethyl 2-amino-4–(4-nitrophenyl)-7,7-dimethyl-5-oxo-1-phenyl-1,4,5,6,7,8-hexahydroquinoline-3-carboxylate]	< 10	< 10	< 10	< 10	16	< 10	< 10	17	< 10	32	34	< 10	< 10	< 10	< 10	< 10	12	< 10	< 10	< 10	inhibition at 10 µM (SNB-19): < 10%; inhibition at 10 µM (T-47D): < 10%; inhibition at 10 µM (IGROV1): < 10%; inhibition at 10 µM (HCT-15): 14%; inhibition at 10 µM (SN 12C): < 10%; GI % mean (NCI 60 cancer cell lines): - ((-) = GI % mean less than 10)
